This note sets out measurements from US11866720B2, “Transgenic or non-transgenic plants with mutated protoporphyrinogen oxidase having increased tolerance to herbicides” (priority 2013, dated 2024).

The assay concerns transgenic soybean expressing mutated PPO. It counts as in vivo, Glycine max. The following applies: T1 soybean, field; for injury (1-5 point scale): benzoxazin (BAS 850H) 100 g ai/ha, 3 days after treatment.

Where two headings read alike, the source gives them in different places.
For injury (1-5 point scale) in this document: key: 1: no obvious damage (no phytotoxicity); 2: minor amount of leaf damage, plant will survive; 3: moderate amount of leaf damage, plant will survive; 4: severe amount of leaf damage, plant will survive; 5: no surviving plants - all plants dead/dying.

For the molecule `C#CCN1C(=O)C(F)(F)Oc2cc(F)c(-n3c(=O)n(C)c(=S)n(C)c3=O)cc21`, the “Injury rating (1-5 point scale)” value is given as 3.5 (AmtuPPX2L_R128A_F420V (event 10), BAS 850H: treatment 1 100 g ai/ha, treatment 2 0, 7DAT); 3 (AmtuPPX2L_R128A_F420V (event 10), BAS 850H: treatment 1 300 g ai/ha, treatment 2 300 g ai/ha, 14 DAT); 5 (wild type, BAS 850H: treatment 1 100 g ai/ha, treatment 2 0, 7DAT); 5 (wild type, BAS 850H: treatment 1 300 g ai/ha, treatment 2 300 g ai/ha, 14 DAT). Moreover, the “injury (1-5 point scale)” value is, setting by setting: (SDS-10648 AmtuPPX2L R128A_F420I) 3; (SDS-10791 AmtuPPX2L R128A_F420I) 2; (SDS-11014 AmtuPPX2L R128A_F420I) 2; (SDS-11034 AmtuPPX2L L397D_F420V) 3; (SDS-11035 AmtuPPX2L R128A_F420V) 2; (SDS-11052 AmtuPPX2L R128A_F420M) 3. In addition, the “injury (1-5 point scale)” value (wild type) is on record as 5.
